Data on 12 molecules can be found in ChEMBL document CHEMBL4342442, “Usnic Acid Enaminone-Coupled 1,2,3-Triazoles as Antibacterial and Antitubercular Agents” (J Nat Prod, 2020).

The subject of test [1] is Mycobacterium tuberculosis. Description: Antitubercular activity against Mycobacterium tuberculosis H37Rv assessed as reduction in microbial growth after 7 days by alamar blue assay. Type of test: functional. The following applies: 168 h. (In general: Alamar Blue is a resazurin reagent that responds to reducing activity.)
The test system of test [2] is Mycobacterium tuberculosis. Description: Antitubercular activity against Mycobacterium tuberculosis H37Rv assessed as log reduction in bacterial population at 10 ug/ml under starvation condition after 7 days by MPN assay. Format: functional.
Test [3] deals with Staphylococcus aureus. Description: Antibacterial activity against Staphylococcus aureus MTCC 96 assessed as diameter of zone of inhibition at 200 ug/ml after 24 hrs by agar well diffusion method. Type of test: functional. A general note: In agar diffusion tests the substance spreads into inoculated agar from a disc or well.
For test [4], the system named is Staphylococcus epidermidis. Put plainly: Antibacterial activity against Staphylococcus epidermidis assessed as diameter of zone of inhibition at 200 ug/ml after 24 hrs by agar well diffusion method. Type of test: functional.
For test [5], the system named is Bacillus subtilis. Put plainly: Antibacterial activity against Bacillus subtilis MTCC 441 assessed as diameter of zone of inhibition at 200 ug/ml after 24 hrs by agar well diffusion method. Format: functional. The following applies: MTCC 441, 24 h, read-out: DIZ.
In test [6] the test system is Escherichia coli. Put plainly: Antibacterial activity against Escherichia coli MTCC 443 assessed as diameter of zone of inhibition at 200 ug/ml after 24 hrs by agar well diffusion method. Format: functional.
Test [7] has as its system Pseudomonas aeruginosa. Description: Antibacterial activity against Pseudomonas aeruginosa MTCC 741 assessed as diameter of zone of inhibition at 200 ug/ml after 24 hrs by agar well diffusion method. Type of test: functional.
Test [8] concerns Klebsiella pneumoniae. Put plainly: Antibacterial activity against Klebsiella pneumoniae MTCC 618 assessed as diameter of zone of inhibition at 200 ug/ml after 24 hrs by agar well diffusion method. Format: functional.
Test [9] deals with Staphylococcus aureus. Put plainly: Antibacterial activity against Staphylococcus aureus MTCC 96 assessed as reduction in microbial growth after 24 hrs by CLSI based microdilution method. The following applies: MTCC 96, 24 h. Type of test: functional. (Broth dilution looks for growth in wells or tubes with falling amounts of substance.)
Test [10] relates to Staphylococcus epidermidis. Description: Antibacterial activity against Staphylococcus epidermidis assessed as reduction in microbial growth after 24 hrs by CLSI based microdilution method. Format: functional.
Test [11] relates to Bacillus subtilis. Description: Antibacterial activity against Bacillus subtilis MTCC 441 assessed as reduction in microbial growth after 24 hrs by CLSI based microdilution method. Format: functional. The following applies: MTCC 441, 24 h.
In test [12] the test system is Escherichia coli. Put plainly: Antibacterial activity against Escherichia coli MTCC 443 assessed as reduction in microbial growth after 24 hrs by CLSI based microdilution method. As to conditions: MTCC 443, 24 h. Format: functional.
Test [13] concerns Pseudomonas aeruginosa. Description: Antibacterial activity against Pseudomonas aeruginosa MTCC 741 assessed as reduction in microbial growth after 24 hrs by CLSI based microdilution method. Format: functional. The following applies: MTCC 741, 24 h.
The subject of test [14] is Klebsiella pneumoniae. Description: Antibacterial activity against Klebsiella pneumoniae MTCC 618 assessed as reduction in microbial growth after 24 hrs by CLSI based microdilution method. Type of test: functional. The following applies: MTCC 618, 24 h.
The test system of another test is CHO-K1. Put plainly: Cytotoxicity against CHOK1 cells assessed as reduction in cell viability after 24 hrs by MTT assay. Type of test: cell-based. As to conditions: Cricetulus griseus, CHO-K1, 24 h.
A short description of test [15]: Cytotoxicity against HEK cells assessed as reduction in cell viability after 24 hrs by MTT assay. Format: cell-based, Homo sapiens.
Where [16] appears, read: Homo sapiens, HEK293, 24 h, read-out: IC50.

Calls of active or inactive are those of the source. The rule behind the calls is not given here.

As usually defined, the MIC is the lowest concentration found to suppress growth. By IC50 is commonly meant the concentration at which inhibition is half-maximal.

As for `NNC(=O)c1ccncc1` [ISONIAZID], in [1], the MIC was determined as 2.9 µM. Also, the FC in [2] worked out at 1.5.
Regarding `COc1ccccc1N1CCN(C(=O)Cn2cc(CN/C(C)=C3\C(=O)C=C4Oc5c(C(C)=O)c(O)c(C)c(O)c5C4(C)C3=O)nn2)CC1` (stereo not drawn), the minimum inhibitory concentration (MIC) is 9.5 µM in test [1]; more than 350 µM in the test with Staphylococcus aureus [9]; more than 350 µM in test [10]; 305 µM in the test on Bacillus subtilis [11]; more than 350 µM in the test on Escherichia coli [12]; more than 350 µM with Pseudomonas aeruginosa [13]. In addition, the MIC in the test on Klebsiella pneumoniae [14] is more than 350 µM. The “diameter of the inhibition zone (DIZ)” value (in the test with Staphylococcus aureus [3]; in test [4]; in the test on Escherichia coli [6]; in the test on Pseudomonas aeruginosa [7]; in the test with Klebsiella pneumoniae [8]) was “inactive” in each case. Further, the zone of inhibition at 200 µg/mL in the test with Bacillus subtilis [5] was determined as 10 mm. Besides, the IC50 in the test with CHO-K1 is 40.4 µM; in test [15], “Non-Toxic”.
`COc1c(N2C[C@@H]3CCCN[C@@H]3C2)c(F)cc2c(=O)c(C(=O)O)cn(C3CC3)c12` [MOXIFLOXACIN]: in test [2], the FC was found to be 2.
In the case of `CC(=O)c1c(O)c(C)c(O)c2c1OC1=CC(=O)/C(=C(/C)NCc3cn(CC(=O)c4cccc(C(F)(F)F)c4)nn3)C(=O)C12C` (stereo not drawn), the MIC in test [1] was 41 µM; with Staphylococcus aureus [9] it was more than 350 µM; in test [10] it was more than 350 µM; with Bacillus subtilis [11], 40.9 µM; in the test with Escherichia coli [12], more than 350 µM; in the test with Pseudomonas aeruginosa [13], more than 350 µM. Also, the MIC in the test on Klebsiella pneumoniae [14] is more than 350 µM. In addition, the “diameter of the inhibition zone (DIZ)” value (with Staphylococcus aureus [3]; in [4]; in the test on Escherichia coli [6]; in the test with Pseudomonas aeruginosa [7]; in the test with Klebsiella pneumoniae [8]) was “inactive” each time. For the same molecule, the zone of inhibition at 200 µg/mL with Bacillus subtilis [5] turned out to be 15 mm. The IC50 stood at 25.6 µM in the test on CHO-K1 and 91.3 µM in test [15] (setting [16]).
Turning to `CO[C@@]12[C@H](COC(N)=O)C3=C(C(=O)C(C)=C(N)C3=O)N1C[C@@H]1N[C@@H]12` [MITOMYCIN], the half-inhibitory concentration (IC50) in the test with CHO-K1 was determined as 39.8 µM.
As to `CO[C@H]1/C=C/O[C@@]2(C)Oc3c(C)c(O)c4c(O)c(c(/C=N/N5CCN(C)CC5)c(O)c4c3C2=O)NC(=O)/C(C)=C\C=C\[C@H](C)[C@H](O)[C@@H](C)[C@@H](O)[C@@H](C)[C@H](OC(C)=O)[C@@H]1C` [RIFAMPIN], the minimum inhibitory concentration (MIC) in [1] was found to be 0.6 µM. Also, the FC in test [2] is recorded as 1.8.
`CC(=O)c1c(O)c(C)c(O)c2c1OC1=CC(=O)/C(=C(/C)NCc3cn(CC(=O)c4ccc(F)c(F)c4)nn3)C(=O)C12C` (stereo not drawn): the MIC in test [1] was 5.4 µM; with Staphylococcus aureus [9] it was more than 350 µM; in [10] it was more than 350 µM; in the test with Bacillus subtilis [11], 173 µM; in the test on Escherichia coli [12], more than 350 µM; in the test on Pseudomonas aeruginosa [13], more than 350 µM. The MIC with Klebsiella pneumoniae [14] was more than 350 µM. Further, the FC in test [2] came out at 2.5. Moreover, the “diameter of the inhibition zone (DIZ)” value (with Staphylococcus aureus [3]; in test [4]; with Escherichia coli [6]; in the test on Pseudomonas aeruginosa [7]; with Klebsiella pneumoniae [8]) was “inactive” each time. For the same molecule, the zone of inhibition at 200 µg/mL in the test on Bacillus subtilis [5] came to 12 mm. Moreover, the IC50 in the test on CHO-K1 was found to be 53.4 µM; in [15] (setting [16]), 52 µM.
Regarding `O=C(O)c1cn(C2CC2)c2cc(N3CCNCC3)c(F)cc2c1=O` [CIPROFLOXACIN], in test [2], the FC is recorded as 1.8.
In the case of `CC(=O)c1c(O)c(C)c(O)c2c1OC1=CC(=O)/C(=C(/C)NCc3cn(CCN4C(=O)c5ccccc5S4(=O)=O)nn3)C(=O)C12C` (stereo not drawn), the MIC in test [1] was determined as 2.5 µM. Also, the FC in [2] is on record as 2.8. Also, the IC50 in the test with CHO-K1 was found to be 12.1 µM; in test [15] (setting [16]), 91.8 µM.
As for `CC(=O)c1c(O)c(C)c(O)c2c1OC1=CC(=O)/C(=C(/C)NCc3cn(CC(=O)c4c(F)c(F)c(F)c(F)c4F)nn3)C(=O)C12C` (stereo not drawn), the minimum inhibitory concentration (MIC) in [1] is 39.5 µM; with Staphylococcus aureus [9] it was more than 350 µM; in test [10], more than 350 µM; in the test on Bacillus subtilis [11] it was 158 µM; in the test on Escherichia coli [12], more than 350 µM; with Pseudomonas aeruginosa [13], more than 350 µM. Besides, the minimal inhibitory concentration (MIC) in the test with Klebsiella pneumoniae [14] is more than 350 µM. Moreover, the “diameter of the inhibition zone (DIZ)” value (with Staphylococcus aureus [3]; in [4]; in the test on Escherichia coli [6]; with Pseudomonas aeruginosa [7]; in the test with Klebsiella pneumoniae [8]) was “inactive” each time. In addition, the zone of inhibition at 200 µg/mL with Bacillus subtilis [5] turned out to be 12 mm. In addition, the IC50 with CHO-K1 was 67.6 µM; in [15], “Non-Toxic”.
For the molecule `CC(=O)c1c(O)c(C)c(O)c2c1OC1=CC(=O)/C(=C(/C)NCc3cn(CC(=O)N4CCOCC4)nn3)C(=O)C12C` (stereo not drawn), the MIC in test [1] was 22.3 µM; with Staphylococcus aureus [9] it was more than 350 µM; in test [10], more than 350 µM; with Bacillus subtilis [11] it was 90.7 µM; with Escherichia coli [12], more than 350 µM; in the test on Pseudomonas aeruginosa [13], more than 350 µM. Further, the MIC in the test on Klebsiella pneumoniae [14] is more than 350 µM. Further, the “diameter of the inhibition zone (DIZ)” value (in the test on Staphylococcus aureus [3]; in test [4]; in the test on Escherichia coli [6]; in the test with Pseudomonas aeruginosa [7]; in the test on Klebsiella pneumoniae [8]) was “inactive” throughout. Also, the zone of inhibition at 200 µg/mL in the test on Bacillus subtilis [5] is 13 mm. Further, the values for the IC50 (in the test with CHO-K1; in [15] (setting [16])) were 23.3 µM and 53.4 µM, respectively.
Regarding `CC(=O)c1c(O)c(C)c(O)c2c1OC1=CC(=O)/C(=C(/C)NCc3cn(CC(=O)c4ccc5ccccc5c4)nn3)C(=O)C12C` (stereo not drawn), the MIC in test [1] was 5.3 µM; in the test with Staphylococcus aureus [9], more than 350 µM; in test [10], more than 350 µM; in the test with Bacillus subtilis [11], 169 µM; in the test on Escherichia coli [12], more than 350 µM; in the test on Pseudomonas aeruginosa [13] it was more than 350 µM. In the test on Klebsiella pneumoniae [14], the minimum inhibitory concentration (MIC) was more than 350 µM. Further, the FC in test [2] came out at 2.1. Moreover, the “diameter of the inhibition zone (DIZ)” value (in the test on Staphylococcus aureus [3]; in test [4]; in the test with Escherichia coli [6]; in the test on Pseudomonas aeruginosa [7]; with Klebsiella pneumoniae [8]) was “inactive” in each case. The zone of inhibition at 200 µg/mL in the test with Bacillus subtilis [5] came to 11 mm. For the same molecule, the IC50 in the test on CHO-K1 is 67.4 µM; in test [15], “Non-Toxic”.
